Patent US9896551B2, “Phosphaphenanthrene-based compound and related preparation method and application” (Elite Electronic Material(Zhongshan) Co., Ltd., priority 2015, dated 2018)

Key:
Format in all cases: physicochemical
[1] = Test Example 1: solvent compatibility, observed by naked eyes; details: for Compatibility in solvent (precipitation, appearance of solution): stand for 12 hours; for Compatibility in solvent (solubility, appearance of solution): the initial state
Text: The phosphaphenanthrene-based compound of the embodiment 2, the conventional phosphaphenanthrene-based compound of the comparison 1 and the conventional phosphaphenanthrene-based compound of the comparison 2 are used as test samples of the test example 1. The test samples are respectively dissolved in toluene, methyl ethyl ketone, and acetone, so as to give a test to the compatibilities of the test samples in these solvents.

[2] = Dissolution of the phosphaphenanthrene-based compound in different solvents; set-up: key: 1: “easily soluble”, which means the solute is dissolved with stirring at room temperature and the solution is clear; “soluble”, which means the solute is dissolved with stirring when being heated up to […] and the solution is clear; 3: “insoluble”, which means the solute is not dissolve even being heated and stirred; details: Methyl ethyl ketone; about 5 grams in about 30 ml
Procedure: (§1) In addition, about 5 grams per serving of the phosphaphenanthrene-based compound are weighed and added to about 30 ml of solvents respectively. Stir with or without heating the solution to dissolve the solute. Observe the dissolution of the phosphaphenanthrene-based compound in different solvents, and the results are shown in Table 1, wherein the numeral “1” represents “easily soluble”, which means the solute is dissolved with stirring at room temperature and the solution is clear; the numeral “2” represents “soluble”, which means the solute is dissolved with stirring when being heated up to 120° C. and the solution is clear; the numeral “3” represents “insoluble”, which means the solute is not dissolve even being heated and stirred.
In addition, about 5 grams per serving of the phosphaphenanthrene-based compound (as shown in formula (XVI)) are weighed and added to about 30 ml of solvents respectively. Stir with or without heating to dissolve the solute. […]

[3] = as above; set-up: key: 1: “easily soluble”, which means the solute is dissolved with stirring at room temperature and the solution is clear; “soluble”, which means the solute is dissolved with stirring when being heated up to 120° C. and the solution is clear; 3: “insoluble”, which means the solute is not dissolve even being heated and stirred; details: about 5 grams in about 30 ml
Procedure: as §1
In addition, about 5 grams per serving of the phosphaphenanthrene-based compound (as shown in formula (XVI)) are weighed and added to about 30 ml of solvents respectively. Stir with or without heating to dissolve the solute. Observe dissolution of the phosphaphenanthrene-based compound in different solvents, and the results are shown in Table 2, wherein the numeral “1” represents “easily soluble”, which means the solute is dissolved with stirring at room temperature and the solution is clear; the numeral “2” represents “soluble”, which means the solute is dissolved with stirring when being heated up to […] and the solution is clear; the numeral “3” represents “insoluble”, which means the solute is not dissolve even being heated and stirred.

C=Cc1ccc(COc2ccc(-c3ccc(OCc4ccc(C=C)cc4)c(P4(=O)Oc5ccccc5-c5ccccc54)c3)cc2P2(=O)Oc3ccccc3-c3ccccc32)cc1 (stereo not drawn) [Comparison 2]
Compatibility in solvent (precipitation, appearance of solution) ([1]; Acetone): Precipitated
Compatibility in solvent (solubility, appearance of solution) ([1]; Acetone): Soluble, clear
Compatibility in solvent (precipitation, appearance of solution) ([1]; Methyl ethyl ketone): Precipitated
Compatibility in solvent (solubility, appearance of solution) ([1]; Methyl ethyl ketone): Soluble, clear
Compatibility in solvent (precipitation, appearance of solution) ([1]; Toluene): No
Compatibility in solvent (solubility, appearance of solution) ([1]; Toluene): Soluble, clear

C=Cc1ccc(COc2ccc(OCc3ccc(C=C)cc3)c(P3(=O)Oc4ccccc4-c4ccccc43)c2)cc1 (stereo not drawn) [Comparison 1]
Compatibility in solvent (precipitation, appearance of solution) ([1]; Acetone): Precipitated
Compatibility in solvent (solubility, appearance of solution) ([1]; Acetone): Soluble, clear
Compatibility in solvent (precipitation, appearance of solution) ([1]; Methyl ethyl ketone): Precipitated
Compatibility in solvent (solubility, appearance of solution) ([1]; Methyl ethyl ketone): Soluble, clear
Compatibility in solvent (precipitation, appearance of solution) ([1]; Toluene): No
Compatibility in solvent (solubility, appearance of solution) ([1]; Toluene): Soluble, clear

C=Cc1ccc(COC(c2ccc(C(OCc3ccc(C=C)cc3)P3(=O)Oc4ccccc4-c4ccccc43)cc2)P2(=O)Oc3ccccc3-c3ccccc32)cc1 (stereo not drawn) [Embodiment 2]
Dissolution [2]: 2
Compatibility in solvent (precipitation, appearance of solution) ([1]; Acetone): No
Compatibility in solvent (solubility, appearance of solution) ([1]; Acetone): Soluble, clear
Compatibility in solvent (precipitation, appearance of solution) ([1]; Methyl ethyl ketone): No
Compatibility in solvent (solubility, appearance of solution) ([1]; Methyl ethyl ketone): Soluble, clear
Compatibility in solvent (precipitation, appearance of solution) ([1]; Toluene): No
Compatibility in solvent (solubility, appearance of solution) ([1]; Toluene): Soluble, clear
Dissolution ([3]; Dimethylacetamide): 1
Dissolution ([3]; Dimethylformamide): 1
Dissolution ([3]; Toluene): 1

O=P1(C(O)c2ccc(C(O)P3(=O)Oc4ccccc4-c4ccccc43)cc2)Oc2ccccc2-c2ccccc21 (stereo not drawn) [Embodiment 1]
Dissolution ([3]; 1-Methoxy-2-propyl acetate (PMA)): 3
Dissolution ([3]; Cyclohexanone (CYC)): 3
Dissolution ([3]; Dimethylacetamide (DMAC)): 3
Dissolution ([3]; Methanol (MT)): 3
Dissolution ([3]; Methyl ethyl ketone (MEK)): 3
Dissolution ([3]; N,N-Dimethylformamide (DMF)): 2
Dissolution ([3]; Proprylene glycol monomethyl ether (PM)): 3
Dissolution ([3]; Toluene (TL)): 3
